Experiments:
[1] = target: T1, α7 nicotinic acetylcholine receptor (α7 nAChR) (Sus scrofa, UniProt F1SNR6); experiment: displacement of […]Iodo-ASEM at […] by autoradiography; settings: read-out: [^125I]Iodo-ASEM Binding in the Pig Cortex, Layers 1-3 (%, mean ± S.E.M.)
T1 construct: gene CHRNA7; native receptor in pig cortex sections

[2] = target: T1, α7 nicotinic acetylcholine receptor (α7 nAChR); experiment: displacement of […]Iodo-ASEM at […] by autoradiography; also blocks […]ASEM PET in vivo; settings: read-out: [^125I]Iodo-ASEM Binding in the Pig Cortex, Layers 1-3 (%, mean ± S.E.M.)

T1 sequence (F1SNR6 20-499): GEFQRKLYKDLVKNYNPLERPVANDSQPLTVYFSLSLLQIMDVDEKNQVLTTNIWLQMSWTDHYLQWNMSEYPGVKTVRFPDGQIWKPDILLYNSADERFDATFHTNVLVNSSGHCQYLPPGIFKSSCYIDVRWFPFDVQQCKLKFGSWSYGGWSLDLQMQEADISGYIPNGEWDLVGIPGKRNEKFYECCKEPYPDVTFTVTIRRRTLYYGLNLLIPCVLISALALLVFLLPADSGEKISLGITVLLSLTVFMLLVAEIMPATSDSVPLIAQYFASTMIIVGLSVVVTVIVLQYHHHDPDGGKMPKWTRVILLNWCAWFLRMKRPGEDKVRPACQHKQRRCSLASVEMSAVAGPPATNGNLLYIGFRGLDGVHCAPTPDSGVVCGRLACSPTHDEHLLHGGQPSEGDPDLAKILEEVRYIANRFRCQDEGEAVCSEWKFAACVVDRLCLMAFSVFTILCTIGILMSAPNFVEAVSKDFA

activity at 10 µM [2] [%]	Compound	activity at 10 µM [1] [%]
	CCN1C[C@]2(COC(=O)c3ccccc3N3C(=O)C[C@H](C)C3=O)CC[C@H](OC)[C@@]34[C@@H]5C[C@H]6[C@H](OC)[C@@H]5[C@](O)(C[C@@H]6OC)[C@@](O)([C@@H](OC)[C@H]23)[C@@H]14 [methyllycaconitine]	20.5 ± 2.18
2.92 ± 0.35	O=C(Oc1ccc(Br)cc1)N1CCN2CCC1CC2 [SSR-180,711]	
	O=C(N[C@@H]1C2CCN(CC2)[C@H]1Cc1cccnc1)c1cc2ccccc2o1 [TC-5619]	7.88 ± 1.65
	CN1C[C@@H]2CN(c3ccc(-c4ccccc4)nn3)C[C@@H]2C1 [A-582941]	3.22 ± 0.28

Reference: paper PMC7144377, “In Vitro and In Vivo Characterization of Dibenzothiophene Derivatives [^125I]Iodo-ASEM and [^18F]ASEM as Radiotracers of Homo- and Heteromeric α7 Nicotinic Acetylcholine Receptors” (Molecules, 2020)
